Data as given in paper PMC9038752, “Molecular mechanisms of bifunctional vitamin D receptor agonist-histone deacetylase inhibitor hybrid molecules in triple-negative breast cancer” (Scientific Reports, 2022).
Converted amounts (≈) assume the structure as drawn.

Experiments:
[1] = target: T1, purified HDAC2 (Homo sapiens, UniProt Q92769); assay: Fluorogenic HDAC inhibition assay, HDAC2; format: biochemical; details: purified HDAC2, fluorometric substrate
T1 construct: purchased Cayman Chemical
Experimental: (§1) The hybrids were assessed to determine their HDACi and VDR agonist activity as well as their antiproliferative properties relative to DK-406. HDACi activity was assessed in vitro using an acetylated lysine substrate that releases a fluorescent reporter upon HDACi deacetylation and subsequent trypsin digestion. Increasing sidechain length of pyrimidine hybrids enhanced the potency of HDAC6 inhibition, with several compounds inhibiting HDAC6 with a sub-micromolar IC50, similar to that of DK-406 (Fig. 4a). […] Next, we analyzed the effects of compounds on levels of H3K9 and H3K27 acetylation in 4TO7 cells, which are controlled by class I HDACs[29],[30]. […] We also tested the capacity of analogues to induce tubulin acetylation, controlled by class II enzyme HDAC6[32], in 4TO7 cells. Based on their relative efficacy in cytotoxicity assays (see below, Fig. 5c,d), we used 10^–5 M DK-406 and 10^–6 M AM-193 for these studies.
(§2) Figure 4 (a) Results of in vitro assays for inhibition of purified HDAC2 and HDAC6 by DK-406 and heterocyclic hybrids as measured by inhibition of deacetylation of a fluorometric substrate (see Methods for details). (b–d) Left: Western blotting analysis of histone 3 lysine 9 (H3K9; b), H3K27 (c), or acetylated tubulin (d), levels in 4TO7 cells treated with ligands for 6 h. Representative western-blots are shown from at least 3 biological replicates. Right: Graphs representing the average of the replicates, bars are mean ± SD. Each condition was compared to control. *: p ≤ 0.05, **: p ≤ 0.01, ***: p ≤ 0.001, ****: p ≤ 0.0001, ns: not significant. TEXT PRINTED IN THE PICTURE: (a) DK-406: HDAC6 IC50 (μM): 0.6; HDAC2 IC50 (μM): 0.5 | (a) AM-155: HDAC6 IC50 (μM): 2.8; HDAC2 IC50 (μM): 1.7 | (a) AM-171: HDAC6 IC50 (μM): 0.5; HDAC2 IC50 (μM): 9.6 | (a) AM-172: HDAC6 IC50 (μM): 0.3; HDAC2 IC50 (μM): 7.7 | (a) AM-191: HDAC6 IC50 (μM): 1.9; HDAC2 IC50 (μM): 8.1 | (a) AM-192: HDAC6 IC50 (μM): 0.5; HDAC2 IC50 (μM): 6.5 | (a) AM-193: HDAC6 IC50 (μM): 0.3; HDAC2 IC50 (μM): 7.2
(§3) Purified HDAC2 and HDAC6 were purchased from Cayman Chemical. Boc-Lys(Ac)-7-amino-4-methylcoumarin (BocLys(Ac)-AMC) was used as substrate for the HDAC assays. Substrate solution was prepared as follow: Boc(Lys-Ac)-AMC was dissolved in DMSO and diluted with HDAC buffer (15 mM tris–HCl [pH 8.1], 250 μM EDTA, 250 mM NaCl, 10% glycerol) to give 1 mM solutions containing 1.7% DMSO. Trypsin was used to stop the reaction, releasing free AMC. The trypsin solution was prepared as follow: trypsin was dissolved in HDAC buffer to give a concentration of 10 mg/mL. Release of AMC was monitored by measuring the fluorescence at 460 nm (lex = 390 nm) with a microplate reader (SpectraMax Gemini from Molecular Devices) at 37 °C. The AMC signals were recorded against a blank with buffer, substrate and trypsin but without the enzyme. All experiments were carried out at least in triplicate.
(§4) For HDAC inhibition assays, inhibitor diluted in 50 μL of HDAC buffer was mixed with 10 μL of diluted enzyme solution in HDAC buffer at room temperature. The HDAC reaction was started by adding 40 μL of substrate solution in HDAC buffer followed by 60 min of incubation with stirring at 37 °C. The reaction was stopped by adding 100 μL of trypsin solution. After a 30 min incubation with stirring at 37 °C, the release of AMC was monitored by measuring the fluorescence.

[2] = target: T2, purified HDAC6 (Homo sapiens, UniProt Q9UBN7); assay: Fluorogenic HDAC inhibition assay, HDAC6; format: biochemical; details: purified HDAC6, fluorometric substrate
T2 construct: purchased Cayman Chemical
T2 sequence (Q9UBN7 1-1215): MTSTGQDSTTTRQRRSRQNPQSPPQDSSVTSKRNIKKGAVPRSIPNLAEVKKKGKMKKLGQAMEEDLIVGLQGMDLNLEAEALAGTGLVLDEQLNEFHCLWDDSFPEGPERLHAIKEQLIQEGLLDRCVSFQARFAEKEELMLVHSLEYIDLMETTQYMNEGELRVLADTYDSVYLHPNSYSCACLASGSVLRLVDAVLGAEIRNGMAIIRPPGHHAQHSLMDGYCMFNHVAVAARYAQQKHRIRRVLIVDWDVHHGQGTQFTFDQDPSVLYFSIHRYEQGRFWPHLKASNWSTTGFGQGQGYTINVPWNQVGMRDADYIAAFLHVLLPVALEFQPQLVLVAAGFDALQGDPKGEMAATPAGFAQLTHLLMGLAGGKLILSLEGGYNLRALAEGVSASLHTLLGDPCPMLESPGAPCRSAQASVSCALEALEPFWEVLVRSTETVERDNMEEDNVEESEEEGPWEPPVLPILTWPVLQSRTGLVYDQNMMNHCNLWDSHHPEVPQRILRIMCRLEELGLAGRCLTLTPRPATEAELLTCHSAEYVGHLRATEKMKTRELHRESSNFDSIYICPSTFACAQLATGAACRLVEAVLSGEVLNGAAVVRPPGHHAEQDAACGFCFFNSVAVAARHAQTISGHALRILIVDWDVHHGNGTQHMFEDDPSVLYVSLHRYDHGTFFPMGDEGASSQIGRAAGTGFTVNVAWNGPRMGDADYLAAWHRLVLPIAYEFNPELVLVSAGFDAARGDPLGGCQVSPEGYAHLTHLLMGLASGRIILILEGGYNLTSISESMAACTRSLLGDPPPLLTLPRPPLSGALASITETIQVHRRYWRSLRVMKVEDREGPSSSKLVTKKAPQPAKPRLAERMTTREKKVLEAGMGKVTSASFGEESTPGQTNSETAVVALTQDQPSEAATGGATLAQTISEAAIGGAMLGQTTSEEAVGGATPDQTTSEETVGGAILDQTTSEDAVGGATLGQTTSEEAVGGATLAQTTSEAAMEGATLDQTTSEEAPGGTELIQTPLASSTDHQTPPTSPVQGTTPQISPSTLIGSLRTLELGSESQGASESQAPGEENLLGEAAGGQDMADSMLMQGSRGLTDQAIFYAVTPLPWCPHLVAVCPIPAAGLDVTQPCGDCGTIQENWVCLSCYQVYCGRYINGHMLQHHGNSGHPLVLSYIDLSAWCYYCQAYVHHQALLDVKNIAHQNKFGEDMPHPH
Experimental: as §1, §2, §3, §4

[3] = tested on: 4T1 mouse model of triple negative breast cancer; parameters: method as in PMID 28847749; details: aggressive 4T1 mouse model of TNBC; cited from earlier work
[4] = tested on: 4TO7 cells; assay: RNAseq gene expression profiling in 4TO7 cells; format: cell-based, mouse; details: relative to control
Experimental: Cells were treated for 6 h to focus more on genes directly regulated by the VDR, or for 24 or 48 h to gain insight into longer-term effects on gene expression.
McGill Genome Centre performed a quality control before sequencing in paired-end at 50 M reads by Illumina NovaSeq 6000 S4 PE100. Sets of genes regulated in the different conditions were sent to us and downstream analysis were performed.
Table S1 and Table S2 : See Excel files with RNAseq results and analysis
48 hours prior to RNA extraction. Samples were prepared in triplicate and run on Illumina NovaSeq 6000 S4
PE100. For assessing differential gene expression for RNAseq data, the LIMMA package inR was used.
RNAseq results and statistical analyses from D, S, S+D, DK-406, and AM-193 conditions measured relative to
AM-193 for 6 or 24 hours prior to RNA extraction . Samples were prepared in triplicate and run on Illumina
NovaSeq 6000 S4 PE100. For assessing differential gene expression for RNAseq data, the LIMMA package in R was […]

[5] = Aqueous solubility after sonication; format: physicochemical; details: water; after sonication for 30 min
Text: The synthesis of the B-ring series mirrored that of the A-ring series producing B-ring hybrids AM-191 (n = 1, 27a), AM-192 (n = 3, 27b), and AM-193 (n = 5, 27c) in 9 steps (Fig. 3).

[6] = tested on: 60 human cell line panel of the National Cancer Institute; parameters: method as in PMID 26048026; details: cell lines from a broad range of tumors, including TNBCs; cited from earlier work
[7] = 6 h, RNAseq Supplemental table 1
[8] = 6 h, RNAseq Supplemental table 2, 1 µM AM-193, 10 µM DK-406, 100 nM 1,25D and SAHA
[9] = 24 h, RNAseq Supplemental table 2, 1 µM AM-193, 10 µM DK-406, 100 nM 1,25D and SAHA
[10] = 48 h, RNAseq Supplemental table 1

T1 sequence (Q92769 whole entry): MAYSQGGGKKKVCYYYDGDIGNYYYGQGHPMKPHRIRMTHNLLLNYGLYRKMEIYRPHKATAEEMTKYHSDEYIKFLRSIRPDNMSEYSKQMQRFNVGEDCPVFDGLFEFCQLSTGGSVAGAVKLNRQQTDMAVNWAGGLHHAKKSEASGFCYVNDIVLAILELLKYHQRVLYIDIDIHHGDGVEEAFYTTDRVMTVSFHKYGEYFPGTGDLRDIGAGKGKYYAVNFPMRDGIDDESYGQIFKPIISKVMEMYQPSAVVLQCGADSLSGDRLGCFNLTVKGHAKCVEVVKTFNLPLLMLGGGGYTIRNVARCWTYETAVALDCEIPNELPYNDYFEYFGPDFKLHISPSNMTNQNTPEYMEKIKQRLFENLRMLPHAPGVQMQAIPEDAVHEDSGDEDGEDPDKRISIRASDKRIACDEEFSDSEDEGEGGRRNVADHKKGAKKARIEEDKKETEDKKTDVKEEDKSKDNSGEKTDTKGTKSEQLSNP

CCC(CC)(c1ccc(OCC(=O)NO)cc1)c1ccc(OCC(O)C(C)(C)C)c(C)n1 (stereo not shown) [AM-191]
IC50 [1]: 8.1 µM
IC50 [2]: 1.9 µM

CCC(CC)(c1ccc(OCC(O)C(C)(C)C)c(C)c1)c1ccc(OCCCCCC(=O)NO)cn1 (stereo not shown) [AM-172]
IC50 [1]: 7.7 µM
IC50 [2]: 0.3 µM

C=C1/C(=C\C=C2/CCC[C@]3(C)[C@@H]([C@H](C)CCCC(C)(C)O)CC[C@@H]23)C[C@@H](O)C[C@@H]1O [1,25D, 1α,25-Dihydroxyvitamin D3, reference compound]
tumor growth and metastasis [3]: inactive alone or in combination
Aaas 6h Log Fold [4, 7]: -1.012
Aacs 6h Log Fold [4, 7]: 1.070
Aaed1 6h Log Fold [4, 7]: -1.076
Aagab 6h Log Fold [4, 7]: 1.036
Aak1 6h Log Fold [4, 7]: -1.011
Aaas 6h Log Fold [4, 8]: -0.038
Aacs 6h Log Fold [4, 8]: 0.025
Aagab 6h Log Fold [4, 8]: 0.115
Aak1 6h Log Fold [4, 8]: 0.014
Aamdc 6h Log Fold [4, 8]: -0.075
Aaas 24h Log Fold [4, 9]: -0.054
Aacs 24h Log Fold [4, 9]: 0.127
Aagab 24h Log Fold [4, 9]: 0.138
Aak1 24h Log Fold [4, 9]: 0.00666
Aamdc 24h Log Fold [4, 9]: -0.360
Aaas 48h Log Fold [4, 10]: -1.436
Aacs 48h Log Fold [4, 10]: 1.516
Aaed1 48h Log Fold [4, 10]: -1.677
Aagab 48h Log Fold [4, 10]: 1.592
Aak1 48h Log Fold [4, 10]: 1.091

CCC(CC)(c1ccc(OCCCCCC(=O)NO)cc1)c1ccc(OCC(O)C(C)(C)C)c(C)c1 (stereo not shown) [DK-367]
solubility at 30 min [5]: 1.91 µg/mL (≈ 3.82 µM)
tumor growth and metastasis [3]: reduced tumor growth and metastasis
antiproliferative activities [6]: displayed antiproliferative activities

O=C(CCCCCCC(=O)Nc1ccccc1)NO [SAHA, Suberoylanilide hydroxamic acid, reference compound]
tumor growth and metastasis [3]: inactive alone or in combination

CCC(CC)(c1ccc(OCCCC(=O)NO)cc1)c1ccc(OCC(O)C(C)(C)C)c(C)n1 (stereo not shown) [AM-192]
IC50 [1]: 6.5 µM
IC50 [2]: 0.5 µM
